Read-outs that look alike come from different tables or passages of the source.

A word on the Emax: it is the maximal effect, on the per cent scale that the assay sets.

The test system of one experiment is rabbit corpus cavernosum. The experiment can be described thus: Relaxation of noradrenaline-contracted rabbit isolated corpus cavernosum (isometric tension recording). As for the experimental part:
(§1) Male New Zealand White rabbits (2-2.5 kg) were used for penis and pulmonary artery tissues, which were excised and transferred to ice-cold Kreb's solution. Two strips and four rings were obtained from each corpus cavernosum (CC) and pulmonary artery, respectively. Cavernosal strips, pulmonary artery, and urether were mounted in 10 ml organ chambers containing Kreb's solution at 37° C., pH 7.4 continuously bubbled with a mixture of 95% O2 and 5% CO2. The tissues were stretched to a resting force of 5 mN and allowed to equilibrate for 60 min. Changes in isometric force were recorded using a PowerLab 4/30 data acquisition system (Chart software, version 7.0; ADInstruments, Colo. Springs, Colo.). Cumulative concentration-response curves to compound 2 (named BL 106 in FIGS. 1, 2 and 3) (0.001-10 μM) were obtained in cavernosal strips, pulmonary artery rings, and urether contracted with noradrenaline (NOR 10 μM) (Sigma, St. Louis, Mo.). Concentration response curves to compound 2 (denoted BL 106 in FIGS. 1, 2 and 3) were constructed for each sample. For pulmonary artery, concentration response curves to compound 2 were also constructed in the presence or absence of the soluble guanylate cyclase inhibitor 1H-[1,2,4]Oxadiazolo[4,3-a]quinoxalin-1-one (ODQ 10 μM) (Sigma, St. Louis, Mo.). Control rings (treated with 40 mM DMSO) were also ran in parallel with experimental strips and rings. Noradrenaline (3 or 10 μM) caused a sustained contraction in rabbit corpus cavernosum (13.8 mN).

In the next experiment the test system is human corpus cavernosum. The experiment can be described thus: Relaxation of noradrenaline-contracted human isolated corpus cavernosum (isometric tension recording). The note with it: human corpus cavernosum contracted with noradrenaline, 0.0001-1 μM, n=3. As for the experimental part: (§2) Human corpus cavernosum and urether were obtained from discarded tissues from surgeries, which were placed in ice-cold Krebs solution for rapid transport to the laboratory.
as §1, with “Cavernosal” for “Male New Zealand White rabbits (2-2.5 kg) were used for penis and pulmonary artery tissues, which were excised and transferred to ice-cold Kreb's solution. Two strips and four rings were obtained from each corpus cavernosum (CC) and pulmonary artery, respectively. Cavernosal”, “rings.” for “rings. Noradrenaline (3 or 10 μM) caused a sustained contraction in rabbit corpus cavernosum (13.8 mN).”
Noradrenaline caused a sustained contraction in the human corpus cavernosum.

The next experiment has as its system rabbit pulmonary artery. The experiment can be described thus: Relaxation of noradrenaline-contracted rabbit isolated pulmonary artery rings (isometric tension recording). As for the experimental part:
Male New Zealand White rabbits (2-2.5 kg) were used for penis and pulmonary artery tissues, which were excised and transferred to ice-cold Kreb's solution. Two strips and four rings were obtained from each corpus cavernosum (CC) and pulmonary artery, respectively. Cavernosal strips, pulmonary artery, and urether were mounted in 10 ml organ chambers containing Kreb's solution at 37° C., pH 7.4 continuously bubbled with a mixture of 95% O2 and 5% CO2. The tissues were stretched to a resting force of 5 mN and allowed to equilibrate for 60 min. Changes in isometric force were recorded using a PowerLab 4/30 data acquisition system (Chart software, version 7.0; ADInstruments, Colo. Springs, Colo.). Cumulative concentration-response curves to compound 2 (named BL 106 in FIGS. 1, 2 and 3) (0.001-10 μM) were obtained in cavernosal strips, pulmonary artery rings, and urether contracted with noradrenaline (NOR 10 μM) (Sigma, St. Louis, Mo.). Concentration response curves to compound 2 (denoted BL 106 in FIGS. 1, 2 and 3) were constructed for each sample. For pulmonary artery, concentration response curves to compound 2 were also constructed in the presence or absence of the soluble guanylate cyclase inhibitor 1H-[1,2,4]Oxadiazolo[4,3-a]quinoxalin-1-one (ODQ 10 μM) (Sigma, St. Louis, Mo.). Control rings (treated with 40 mM DMSO) were also ran in parallel with experimental strips and rings. Noradrenaline (3 or 10 μM) caused a sustained contraction in the rabbit pulmonary artery (17.4 mN).

The subject of another experiment is human urether tissue. The experiment can be described thus: Relaxation of noradrenaline-contracted human isolated urether tissue (isometric tension recording). The note with it: human urether contracted with noradrenaline, 0.0001-1 μM, n=3. As for the experimental part:
as §2
as §1, with “Cavernosal” for “Male New Zealand White rabbits (2-2.5 kg) were used for penis and pulmonary artery tissues, which were excised and transferred to ice-cold Kreb's solution. Two strips and four rings were obtained from each corpus cavernosum (CC) and pulmonary artery, respectively. Cavernosal”, “rings.” for “rings. Noradrenaline (3 or 10 μM) caused a sustained contraction in rabbit corpus cavernosum (13.8 mN).”
Noradrenaline caused a sustained contraction in the human urether tissue.

[1] abbreviates: read-out: pEC50 of relaxation (converted).

With `CN1CC(=O)N2C(=C(c3c[nH]c4ccccc34)OC2c2ccc3c(c2)OCO3)C1=O` (racemic) [Compound 2, (R,S)-3-(1,3-benzodioxol-5-yl)-1-(1H-indol-3-yl)-7-methyl-6,7-dihydro[1,3]oxazolo[3,4-a]pyrazine-5,8-dione], the Emax with rabbit corpus cavernosum (Oryctolagus cuniculus, rabbit corpus cavernosum contracted with noradrenaline, n=3) was found to be 91%; in the experiment on human corpus cavernosum, 71%; with rabbit pulmonary artery (Oryctolagus cuniculus, rabbit pulmonary artery rings contracted with noradrenaline, 0.001-10 μM, n=3), 62%; in the experiment on human urether tissue, 49%. In addition, the EC50 was 1200 nM in the experiment on rabbit corpus cavernosum (Oryctolagus cuniculus, rabbit corpus cavernosum contracted with noradrenaline, n=3, read-out: EC50 of relaxation (bracketed after pEC50) (converted)); 1200 nM in the experiment on rabbit corpus cavernosum (Oryctolagus cuniculus, rabbit corpus cavernosum contracted with noradrenaline, n=3, read-out: pEC50 of relaxation (converted)); 22.4 nM in the experiment with human corpus cavernosum (setting [1]); 589 nM in the experiment with rabbit pulmonary artery (Oryctolagus cuniculus, rabbit pulmonary artery rings contracted with noradrenaline, 0.001-10 μM, n=3, read-out: pEC50 of relaxation (converted)); 588 nM with rabbit pulmonary artery (Oryctolagus cuniculus, rabbit pulmonary artery rings contracted with noradrenaline, n=3, read-out: EC50 of relaxation (bracketed after pEC50) (converted)); 513 nM in the experiment with human urether tissue (setting [1]).
With `NC[C@H](O)c1ccc(O)c(O)c1` [Noradrenaline, noradrenaline, reference compound], the sustained contraction in the experiment on rabbit corpus cavernosum (rabbit corpus cavernosum, noradrenaline 3 or 10 μM) amounted to 13.8 mN; with rabbit pulmonary artery (rabbit pulmonary artery, noradrenaline 3 or 10 μM), 17.4 mN.

The values are drawn from patent US8338432B2, “Derivatives of 6,7-dihydro-3H-oxazolo[3,4-a]pyrazine-5,9-dione as PDE-5 inhibitors” (Biolab Sanus Farmaceutica Ltda., priority 2010, dated 2012).
